l = locked nucleic acid (LNA); d = 2'-deoxy (DNA)

What all share (assay type): cell-based, human
In data set [1] the test system is hCD39 mRNA. Briefly: hCD39 mRNA knockdown efficacy screen in A-172 cells (single dose, gymnotic delivery, QuantiGene Singleplex). Conditions: 10 μM, 3 days; for Mean hCD39 mRNA expression (relative to untreated cells set as 1): first screening round; for Mean hCD39 mRNA expression (relative to untreated cells set as 1) / Relative hCD39 mRNA expression (compared to non-treated cells): normalized to HPRT1; for Relative hCD39 mRNA expression (compared to non-treated cells): second screening round; for Residual hCD39 mRNA expression relative to untreated cells (set as 1): third screening round. The gist of the method:
(§1)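 Antisense oligonucleotides given once at 10 μM without transfection reagent (gymnotic) to HDLM-2 or A-172 cells for 3 days. hCD39 mRNA measured by QuantiGene Singleplex, normalized to HPRT1 and expressed relative to untreated cells; triplicate means.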

Data set [2] relates to hCD39 mRNA. The experiment in a line: hCD39 mRNA knockdown efficacy screen in HDLM-2 cells (single dose, gymnotic delivery, QuantiGene Singleplex). The settings on record: 10 μM, 3 days; for Mean hCD39 mRNA expression normalized to HPRT1 relative to untreated control = 1: first screening round; for Relative hCD39 mRNA expression (compared to non-treated cells): second screening round, normalized to HPRT1; for Residual hCD39 mRNA expression relative to untreated cells (set as 1): third screening round. In a few lines:
as §1

Data set [3] relates to hCD39 mRNA. The experiment in a line: IC50 determination / concentration-dependent hCD39 mRNA knockdown in HDLM-2 cells. Conditions: for mRNA inhibition: HDLM-2, 3 days; for IC50: HDLM-2 cells, hCD39 mRNA, 3 days. The protocol:
HDLM-2 cells were treated for 3 days with the indicated concentration of the respective antisense oligonucleotide. Residual hCD39 expression is depicted compared to untreated control cells. hCD39 mRNA expression values were normalized to expression of the housekeeping gene HPRT1.
The antisense oligonucleotide A04040H (SEQ ID No. 3) that had shown potent activity in the first and second screening round was used as reference. HDLM-2 cells treated for 3 days with the indicated concentrations of the respective antisense oligonucleotide. hCD39 mRNA expression values were normalized to expression of the housekeeping gene HPRT1. Residual hCD39 mRNA expression relative to untreated cells (set as 100) is depicted. Depicted is the mean of triplicate wells+/−SD.
In a second experiment the concentration-dependency of effects and the IC50 values of hCD39 antisense oligonucleotides A04010H (SEQ ID No.14), A04016H (SEQ ID No.20), A04017H (SEQ ID No.21), A04020H (SEQ ID No. 24) and A04026H (SEQ ID No.30) were tested. […] HDLM-2 cells were treated with titrated amounts of the respective antisense oligonucleotide (concentrations: 10 μM, 3.3 μM, 1.1 μM, 370 nM, 120 nM, 41 nM, 14 nM, 4.5 nM). hCD39 mRNA expression was analyzed after three days of treatment. FIG. 5 and Table 9 depicts the concentration-dependent reduction of hCD39 mRNA expression by the selected hCD39 antisense oligonucleotides.
The hCD39 antisense oligonucleotides A04051H (SEQ ID No.88), A04052H (SEQ ID No.89), A04053H ([…]), A04056H (SEQ ID No.92), A04059H (SEQ ID No.94), A04060H (SEQ ID No.95), and A04061H (SEQ ID No.96) had shown potent single-dose activity in both HDLM-2 and A-172 cells. […] The antisense oligonucleotide A04040H that had shown potent activity in the first screening round was used as reference. hCD39 mRNA expression was analyzed after 3 days of treatment. FIG. 7 depicts the concentration-dependent reduction of hCD39 expression by hCD39 antisense oligonucleotides.

The mark [4] stands for this setting: second screening round (Table 9).
Where [5] appears, read: third screening round (Table 12).

Turning to “+G*+T*+A*A*G*C*C*C*T*G*A*T*+G*+T*+T (antisense GTAAGCCCTGATGTT; sugars from the 5' end l3 d9 l3, all phosphorothioate, methylation of C not given here) [A04019H]”, the “Mean hCD39 mRNA expression (relative to untreated cells set as 1)” value with hCD39 mRNA [1] was determined as 0.03. The “Relative hCD39 mRNA expression (compared to non-treated cells)” value came out at 0.03 in the data set on hCD39 mRNA [1] and 0.08 with hCD39 mRNA [2]. Besides, the “Residual hCD39 mRNA expression relative to untreated cells (set as 1)” value in the data set on hCD39 mRNA [1] was 0.00; with hCD39 mRNA [2] it was 0.01. For the same substance, the “Mean hCD39 mRNA expression normalized to HPRT1 relative to untreated control = 1” value with hCD39 mRNA [2] is 0.08. For the same substance, the mRNA inhibition in the data set with hCD39 mRNA [3] (0.0045 μM, Table 8) is listed as −11.65%; in the data set with hCD39 mRNA [3] (0.0045 μM, Table 9) it was 22.53%; in the data set with hCD39 mRNA [3] (0.013 μM, Table 8), 8.19%; with hCD39 mRNA [3] (0.013 μM, Table 9), 49.52%; in the data set with hCD39 mRNA [3] (0.04 μM, Table 8), 38.76%; in the data set with hCD39 mRNA [3] (0.04 μM, Table 9), 62.95%. Moreover, the mRNA inhibition with hCD39 mRNA [3] (0.12 μM, Table 8) was found to be 69.42%; in the data set with hCD39 mRNA [3] (0.12 μM, Table 9), 82.63%; in the data set on hCD39 mRNA [3] (0.4 μM, Table 8), 88.83%; in the data set with hCD39 mRNA [3] (0.4 μM, Table 9), 93.96%; in the data set on hCD39 mRNA [3] (1.1 μM, Table 8), 95.46%; in the data set on hCD39 mRNA [3] (1.1 μM, Table 9) it was 97.94%. The mRNA inhibition with hCD39 mRNA [3] (3.3 μM, Table 8) was found to be 97.89%; in the data set with hCD39 mRNA [3] (3.3 μM, Table 9), 99.04%; in the data set on hCD39 mRNA [3] (10 μM, Table 8) it was 98.39%; in the data set on hCD39 mRNA [3] (10 μM, Table 9), 99.00%. Moreover, the IC50 was determined as 40 nM with hCD39 mRNA [3] (first screening round (Table 8)) and 11.6 nM in the data set on hCD39 mRNA [3] (setting [4]).

Turning to “+G*+T*+T*T*G*T*G*T*G*A*G*A*G*C*+T (antisense GTTTGTGTGAGAGCT; sugars from the 5' end l3 d11 l1, all phosphorothioate, methylation of C not given here) [A04061H]”, the “Residual hCD39 mRNA expression relative to untreated cells (set as 1)” value amounted to 0.10 in the data set with hCD39 mRNA [1] and 0.01 in the data set on hCD39 mRNA [2]. For the same substance, the mRNA inhibition with hCD39 mRNA [3] (4 nM, Table 12) is on record as 0.00%; in the data set on hCD39 mRNA [3] (12 nM, Table 12), 0.00%; with hCD39 mRNA [3] (40 nM, Table 12) it was 19.90%; in the data set on hCD39 mRNA [3] (110 nM, Table 12), 69.28%; with hCD39 mRNA [3] (330 nM, Table 12), 92.28%; in the data set on hCD39 mRNA [3] (1000 nM, Table 12) it was 97.43%. In the data set with hCD39 mRNA [3] (setting [5]), this substance displayed an IC50 of 66.8 nM.

As to “+G*+T*+T*T*G*T*G*T*G*A*G*A*G*C*+T*+T*+T (antisense GTTTGTGTGAGAGCTTT; sugars from the 5' end l3 d11 l3, all phosphorothioate, methylation of C not given here) [A04056H]”, the “Residual hCD39 mRNA expression relative to untreated cells (set as 1)” value in the data set on hCD39 mRNA [1] is reported as 0.09; in the data set with hCD39 mRNA [2] it was 0.01. Moreover, the mRNA inhibition was found to be 13.97% in the data set on hCD39 mRNA [3] (4 nM, Table 12); 37.12% in the data set on hCD39 mRNA [3] (12 nM, Table 12); 69.95% in the data set with hCD39 mRNA [3] (40 nM, Table 12); 91.83% in the data set on hCD39 mRNA [3] (110 nM, Table 12); 97.52% in the data set on hCD39 mRNA [3] (330 nM, Table 12); 98.49% in the data set on hCD39 mRNA [3] (1000 nM, Table 12). Also, the IC50 with hCD39 mRNA [3] (setting [5]) amounted to 20.2 nM.

For “+G*G*+A*C*A*A*T*G*G*T*T*G*+C*+T*+C (antisense GGACAATGGTTGCTC; sugars from the 5' end l1 d1 l1 d9 l3, all phosphorothioate, methylation of C not given here) [A04016H]”, the “Mean hCD39 mRNA expression (relative to untreated cells set as 1)” value in the data set with hCD39 mRNA [1] amounted to 0.09. Moreover, the “Relative hCD39 mRNA expression (compared to non-treated cells)” value in the data set with hCD39 mRNA [1] was 0.09; in the data set with hCD39 mRNA [2], 0.10. Moreover, the “Mean hCD39 mRNA expression normalized to HPRT1 relative to untreated control = 1” value in the data set with hCD39 mRNA [2] was determined as 0.10. The mRNA inhibition is 18.41% with hCD39 mRNA [3] (0.0045 μM, Table 9); 42.19% in the data set on hCD39 mRNA [3] (0.013 μM, Table 9); 62.31% in the data set on hCD39 mRNA [3] (0.04 μM, Table 9); 77.61% in the data set with hCD39 mRNA [3] (0.12 μM, Table 9); 90.51% in the data set with hCD39 mRNA [3] (0.4 μM, Table 9); 96.67% in the data set with hCD39 mRNA [3] (1.1 μM, Table 9). Further, the mRNA inhibition was 98.38% in the data set on hCD39 mRNA [3] (3.3 μM, Table 9) and 98.94% in the data set on hCD39 mRNA [3] (10 μM, Table 9). The half-inhibitory concentration (IC50) in the data set on hCD39 mRNA [3] (setting [4]) came out at 12.8 nM.

Usually IC50 stands for the concentration needed to halve the response being measured.

The record behind these values is patent publication US11959083B2, “Immunosuppression-reverting oligonucleotides inhibiting the expression of CD39” (Secarna Pharmaceuticals GmbH & Co. KG, priority 2016, dated 2024).
